{"source": "patent US6512102B1", "about": "“Compositions and methods of diagnosis and treatment using casein kinase I” (Chiron Corporation, priority 1998, dated 2003)", "tested_on": "Lef-1 dependent transcription", "experiment": "Lef-1 enhancer luciferase reporter assay in Cos cells", "format": "cell-based", "settings": "GSK3 over-expressed / cotransfected", "description": "Combinations of Wnt-1, CKIε, CKI kinase dead variant (lys→arg 38) and Lef-1 were transfected into Cos cells with a luciferase gene driven by multiple copies of Lef enhancer elements. As an internal control of transfection efficiency, the β-galactosidase gene driven by the SV40 promoter was co-transfected in all samples. 24 hours after transfection, cells were lysed and the lysate was tested for luciferase activity. The luciferase activity was normalized with respect to β-galactosidase activity. […] Dorsoanterior index (DAI) grade numbers were assigned to the phenotypes of the embryos. A grade 5 embryo is normal; a grade 3 embryo is cyclopic (one eye); a grade 1 embryo has a tail fin and somites but no head (acephalic); and a grade 0 embryo has no dorsoanterior structures (Kao et al., 1988).\nThe effect of CKI on Lef-1 dependent transcription in Cos mammalian cells was examined. A luciferase reporter gene driven by multiple copies of the Lef-I enhancer sequence was used. When only Wnt-I or lef-I or CKIε was transfected with the reporter construct, luciferase activity was induced only 2 to 3 fold (FIG. 1A). When Lef-1 was cotransfected with either Wnt-1 or CKIε, luciferase activity was induced 30 or 12 fold respectively.\nLuciferase reporter plasmid contains multiple Lef-I enhancer sites upstream of the fos basal promoter. […]"}
{"substance": "GSK3: GSK3 over-expressed from cotransfected plasmid [reference compound]", "values": [{"measurement": "luciferase activity transduced by CKIε", "result": "inhibited the effect of CKI in promoting transcription"}]}
